Legend:
[1] = test system: small intestinal organoids; assay: Budding characteristics analysis (counts of budding and non-budding organoids); assay type: cell-based, mouse; conditions: 4 days
Excerpt: The morphological characteristic of the small intestinal organoids is that they grow while budding. In order to check that the budding rate of the small intestinal organoids grown in the RS-246204-added culture solution (hereinafter, RS-246204 culture solution) is similar to that grown in ENR culture solution, the total number of organoids, the number of budding organoids, and the number of non-budding organoids were counted in the wells culturing for 4 days. The rate of budding organoids and non-budding organoids grown in the culture solution containing 50 μM of RS-246204 is about 1:1, which is similar to the rate of organoids grown in the ENR culture solution (see FIG. 2C).

[2] = test system: small intestinal organoids; assay: Screening of compound library using organoid proliferation measurement; assay type: cell-based, mouse; conditions: 50 μM in EN culture solution, 4 days
Excerpt: Small intestinal crypts were isolated from a mouse to be used in experiments for preparing and culturing small intestinal organoids. Specifically, the small intestine was isolated after killing a 5-7 weeks old C57BL/6 mouse weighing 20-25 g by cervical vertebrae dislocation. The small intestine was cut longitudinally from a proximal end to a distal end, and also laterally cut into pieces of about 5 mm length. The piece of small intestine obtained was washed with ice-cooled Dulbecco's phosphate-buffered saline (DPBS) until the supernatant liquid was sufficiently clear. Then, the crypts were isolated by treating with a Gentle Cell Dissociation Reagent (StemCell Technologies, Cambridge, MA), and filtering with a cell strainer.
Compounds which can replace R-spondin in organoid cultures were screened for 8,364 types of compounds included in a representative library of the Korea Chemical Bank.
The small intestinal crypts derived from the small intestine of a 7-week-old C57BL/6 mouse isolated in Example 1 were mixed in Matrigel, and placed in each well of a 96-well plate. […]
The number of living organoids, the number of budding organoids, and the circumference of each organoid were measured using the optical microscope photos. […] The compounds were ranked based on the measured values, and then 295 candidate compounds were selected to be used in a second screening. […]

[3] = test system: small intestinal organoids; assay: RT-PCR and qRT-PCR analysis of lineage markers; assay type: cell-based, mouse
Description: In order to confirm whether lineage markers specific to the small intestinal organoids are expressed when cultured with RS-246204, RNA analysis was performed. The small intestinal organoids cultured in ENR and RS-246204 culture solutions, respectively, for 4 days were collected. RNA was extracted and cDNA was synthesized, and then RT-PCR was performed. As a marker for intestinal stem cells, goblet cells, paneth cells, enteroendocrine cells and enterocyte, RT-PCR was performed using RNA primers for Lgr5, muc-1 and muc-2, defesing-5, chromogranin A (ChgA), and villin, respectively.
For quantitative analysis, qRT-PCR analysis was performed. AccuPower 2X Greenstar qPCR MasterMix (Bioneer) and Thermal Cycler Dice® Real Time System III (Takara, Japan) were used, and the reaction was performed for 10 seconds at 95° C. (denaturation), 15 seconds at 57° C. (annealing), and 20 seconds at 72° C. (extension). The RNA primers excluded Muc1 among those used in the RT-PCR test, changed the enterocyte marker from villin to Intestinal Alkaline Phosphatase (IAP), and used the same sequence for the rest.

[4] = test system: small intestinal organoids; assay: CFTR agonist Forskolin analysis (function maintenance); assay type: cell-based, mouse; conditions: 4 days culture, then forskolin 5 μM, 1 hour
Description: In order to check whether functions of small intestinal epithelial cells are maintained in the small intestinal organoids cultured using the RS-246204 culture solution, CFTR agonist Forskolin analysis was performed. The forskolin is a compound which stimulates ion channels to open, thereby promoting the release of moisture. In case of small intestinal organoids, moisture gathers into the lumen by the forskolin stimulation and changes into a large spherical shape, thereby confirming the maintenance of the function of epithelial cells. After culturing for 4 days in RS-246204 culture solution and ENR culture solution, respectively, it was replaced with a culture solution to which forskolin was added at a concentration of 5 μM. Photographs were taken by an optical microscope at an interval of 10 minutes for 1 hour immediately after the replacement. Based on the optical micrographs, the free curve tool of Dixi eXcope (Korea) program was used to measure the circumference of each organoid per hour and analyze the change in circumference.

[5] = test system: human large intestinal organoids; assay: Formation of large intestinal organoids (Example 6); assay type: cell-based; conditions: for organoid formation: 5 days
Excerpt: (§1) Large intestinal tissue was isolated from a human patient during surgery and used in experiments for forming organoids. The tissue was cut longitudinally from a proximal end to a distal end, and also laterally cut into pieces of about 5 mm length. The tissue pieces, which were isolated crypts, were washed with ice-cooled Dulbecco's phosphate-buffered saline (DPBS) until the supernatant liquid was sufficiently clear. Then, the crypts were isolated by treating with a Gentle Cell Dissociation Reagent (StemCell Technologies, Cambridge, MA), and filtering with a cell strainer. The crypts were mixed in collagen gel, and placed in each well of a well plate with the composition comprising the compound of the chemical formula 1 (namely, RS-246204). After keeping in 37° C. humidification incubator (5% CO2) for 5 days, the formed organoids were observed, and optical microscope photos were taken for analysis.
(§2) The control and experimental groups were classified as follows depending on the components of the medium composition used.
• ENR group: Basal media supplemented with EGF (E), Noggin (N) and R-spondin (R) was used to form human large intestinal organoids. • EN+RS-246204 group: Basal media supplemented with EGF (E), Noggin (N) and RS-246204 (25 or 50 μM) was used to form human large intestinal organoids.
• RS-246204 group: Basal media supplemented with RS-246204 (25 or 50 μM) was used to form human large intestinal organoids.
Noggin, thiazovivin, CHIR99021, and a pharmaceutically acceptable salt of CHIR99021 was not used in both the control and experimental groups.

[6] = test system: pancreatic cancer organoids; assay: Formation of organoids (Example 8), pancreatic cancer; assay type: cell-based, human
Excerpt: (§3) Large intestinal tissue, adenoid tissue, and pancreatic cancer tissue were isolated from a patient during surgery and used in experiments for preparing and culturing organoids. Salivary tissue was isolated from a mouse and used in experiments for preparing and culturing organoids.
(§4) Each of the tissues was cut longitudinally from a proximal end to a distal end, and also laterally cut into pieces of about 5 mm length. The piece of the tissues obtained was washed with ice-cooled Dulbecco's phosphate-buffered saline (DPBS) until the supernatant liquid was sufficiently clear. Then, the tissues were isolated by treating with a Gentle Cell Dissociation Reagent (StemCell Technologies, Cambridge, MA), and filtering with a cell strainer. The isolated tissues were mixed in collagen gel, and placed in each well of a well plate. After keeping in 37° C. humidification incubator (5% CO2), the cultured organoids were observed, and optical microscope photos were taken for analysis.

[7] = test system: small intestinal organoids; assay: Subculture of small intestinal organoids; assay type: cell-based, mouse; conditions: RS-246204 culture solution
[8] = test system: large intestinal organoids; assay: Formation of organoids (Example 8), large intestinal; assay type: cell-based, human
Excerpt: as §3, §4

adenoid organoids = assay: Formation of organoids (Example 8), adenoid; assay type: cell-based, human; conditions: 1 μM
Excerpt: as §3, §4

[9] = test system: small intestinal organoids; assay: Immunofluorescence analysis; assay type: cell-based, mouse; conditions: organoids cultured in ENR and RS-246204 culture solutions
[10] = test system: small intestinal organoids; assay: Organoid circumference by date (growth efficiency); assay type: cell-based, mouse; conditions: RS-246204 culture solution vs ENR culture solution, photographed every day
Description: In order to check whether the growth efficiency of the small intestinal organoids grown in the RS-246204 culture solution has a difference, the small intestinal organoids cultured in each culture solution were photographed by an optical microscope every day. The circumference of the individual organoid according to the condition of culture medium and date was measured, and converted into percentage.

salivary organoids = assay: Formation of organoids (Example 8), salivary; assay type: cell-based, mouse
Excerpt: as §3, §4

[11] = test system: human large intestinal organoids; assay: Formation of large intestinal organoids, RS-246204 concentration series (Example 7); assay type: cell-based
Excerpt: as §1, with “keeping in a 37° C.” for “keeping in 37° C.”, “were observed, optical microscope” for “were observed, and optical microscope”, “taken for analysis, and organoid counts were analyzed using Leopard iX software.” for “taken for analysis.”
as §2
• RS 0 μM group: Basal media (Advanced DMEM/F12 media) not supplemented with RS-246204 (also referred to as “RS”) was used to form human large intestinal organoids. • RS 2.5 μM group: Basal media (Advanced DMEM/F12 media) supplemented with RS-246204 2.5 μM was used to form human large intestinal organoids.
• RS 5 μM group: Basal media (Advanced DMEM/F12 media) supplemented with RS-246204 5[…] μM was used to form human large intestinal organoids. • RS 50 μM group: Basal media (Advanced DMEM/F12 media) supplemented with RS-246204 50 μM was used to form human large intestinal organoids. • RS 100 μM group: Basal media (Advanced DMEM/F12 media) supplemented with RS-246204 100 μM was used to form human large intestinal organoids.

## Cn1c(Sc2ccc3ccccc3n2)nc2c1c(=O)[nH]c(=O)n2C [RS-246204]
[1]; concentration higher than 50 μM
  killing of organoids: most organoids were killed
[1]; concentration lower than 50 μM
  rate of non-budding organoids: increased
[2]; among the final seven candidate compounds
  growth of small intestinal organoids: highest growth of small intestinal organoids among the candidate materials
[2]; numerical data and visual confirmation
  growth and maintenance of organoids compared with R-spondin: could grow and maintain organoids most similar to R-spondin
[3]; 4 days culture, Lgr5, muc-1, muc-2, defesing-5, ChgA, villin
  presence of intestinal stem cells, goblet cells, paneth cells, enteroendocrine cells and enterocyte (RT-PCR markers): all these cells were present
[3]; ENR vs RS-246204 culture solutions
  relative amount of markers expressed (qRT-PCR): little difference between the ENR and RS-246204 culture solutions
[4]
  function of epithelial cells after forskolin stimulation: performed well as epithelial cells
[5]; EN+RS-246204 group: basal media with EGF, Noggin and RS-246204 (25 or 50 μM)
  organoid formation: human intestinal organoids were formed
[5]; RS-246204 group (25 or 50 μM) compared with ENR or EN+RS-246204 groups
  quantity of organoid calculated from the confluency: no significant difference
[5]; RS-246204 group: basal media supplemented with RS-246204 only (25 or 50 μM)
  organoid formation: human intestinal organoids were formed
[6]
  growth after subculturing: can grow even after subculturing
[6]; 30 μM RS-246204
  formation and proliferation effects: excellent formation and proliferation effects
[7]
  growth and maintenance after the subculture: growth and maintenance were also possible even after the subculture
[7]; same manner as ENR culture solution
  possibility to subculture: possible to subculture
[8]
  budding (crypt) formation: grow while forming budding (crypt)
  growth after subculturing: can grow even after subculturing
[8]; 20 μM RS-246204
  formation and proliferation effects: excellent formation and proliferation effects
Adenoid organoids; 2 μM or 5 μM
  dose dependence of formation and proliferation: form and proliferate in a dose-dependent manner
Adenoid organoids; 2 μM or 5 μM RS-246204
  formation and proliferation effects: excellent formation and proliferation effects
[9]
  expression of Muc-2, lysozyme and Ki67 (immunofluorescence staining): confirm the expression of Muc-2, lysozyme, and Ki67
[10]
  growth efficiency and increase rate of the circumference according to date: similarly observed
Salivary organoids
  growth after subculturing: can grow even after subculturing
Salivary organoids; 1.25 μM, 2.5 μM or 5 μM
  dose dependence of formation and proliferation: form and proliferate in a dose-dependent manner
Salivary organoids; 1.25 μM, 2.5 μM or 5 μM RS-246204
  formation and proliferation effects: excellent formation and proliferation effects
[11]; RS 2.5 μM compared with RS 0 μM group
  quantity of organoid calculated from the confluency: no significant difference
[11]; RS 2.5 μM in Advanced DMEM/F12, 5 days
  organoid formation: human intestinal organoids were formed
[11]; RS-246204 5, 50 or 100 μM in Advanced DMEM/F12, 5 days
  organoid formation: human intestinal organoids were formed
